# Test results taken from US20220251092A1, “CASEIN KINASE 1EPSILON INHIBITOR, PHARMACEUTICAL COMPOSITION AND APPLICATION THEREOF” (HANGZHOU HEALZEN THERAPEUTICS CO., LTD., priority 2019, published 2022).
# Assays:
# CK1ε = CK1ε (Homo sapiens, UniProt P49674); experiment: CK1ε kinase activity assay (Caliper, FAM-labelled polypeptide); format: biochemical
# Protocol: The in-vitro assay of inhibitory activity of the compound herein against CK1ε kinase was:
# (1) preparation of 1× kinase basic buffer and stop buffer: • 1×kinase basic buffer: 50 mM HEPES, pH 7.5; and 0.0015% Brij-35; • stop buffer: 100 mM HEPES, pH 7.5; 0.015% Brij-35; 0.2% Coating Reagent #3; and 50 mM EDTA.
# (2) preparation of the test compound: • a 50× (“n×” represents dilution factor, same hereafter) stock solution of the compound with DMSO (10 mM, DMSO) to obtain stock solution I for use; […] of stock solution I was placed in a 96-well plate, each compound sample was diluted by 5-fold serial dilution till 10 concentrations was obtained while ensuring 10 μl of drug solution in each well; meanwhile, 100 μl of DMSO was used as a blank control group and a negative control group without enzyme substrate; • a separate 96-well plate was prepared, and to 10 μl of the above compound,
# 90 μl of 1× kinase foundation buffer was added, mixed well for 10 min to obtain a mixture.
# OCI-LY10 cells = experiment: In-vitro anti-tumor activity, OCI-LY10 cells, CCK-8; format: cell-based, human; details: Homo sapiens; OCI-LY10, 72h, CCK-8; read-out: IC50
# Protocol: The in-vitro anti-tumor activities of the synthesized compounds were determined using a diffuse large B-cell lymphoma (OCI-LY10) cell strain:
# Drug preparation method: The drug was dissolved in DMSO to make a stock solution of 10 mM and diluted in a certain ratio to obtain 7 different concentrations (test concentration: 100×).
# In vitro culture of tumor cells: The selected OCI-LY10 cells were incubated with a medium of IMDM+fetal bovine serum in a 5% CO2 cell culture incubator at 37° C., and were passaged when the cell density grew to 70-90% (adherent cells were passaged after digestion with Duck's EDTA) for later experiments as needed. Four thousand cells/200 μl/well were seeded in a 96-well plate and incubated overnight in a 5% CO2 cell incubator at 37° C. Two μl of the compounds were dispensed in each well at final concentrations of […], and incubation was performed together for 72h in a 5% CO2 cell incubator at 37° C. with DMSO (2%) as control. After 72h, 20 μl of CCK-8 solution was added and the plate was placed in a 5% CO2 cell culture incubator at 37° C. for 4h. Wells with the corresponding amounts of cell culture medium and CCK-8 solution but without cells were used as blank controls. The absorbance (OD values) was measured at 450 nm using an enzyme marker, and the obtained data were used to calculate the IC50.
# OCI-LY10 xenograft tumor = experiment: In vivo pharmacodynamic study, OCI-LY10 subcutaneous xenograft in SCID mice; parameters: species or system SCID mouse; details: Table 4; 100 mg/kg PO QD Day 0-38; combinations with 17a 6 mg/kg PO QD
# Protocol: OCI-LY10 cells were cultured in an IMDM medium containing 20% FBS and maintained in a 5% CO2 incubator at 37° C. with saturated humidity. OCI-LY10 cells of logarithmic phase were collected and resuspended in an IMDM basic medium containing 50% Matrigel, and the cell concentration was adjusted to 5×10^7/ml. Subcutaneous inoculation of 0.1 ml of the cell suspension was performed aseptically in the right dorsum of mice at a concentration of 5×10^6/0.1 ml/mouse. Once the tumor volume reached about 150 mm^3, the animals were randomly grouped according to tumor volume so that the difference in tumor volume between the groups was less than 10% of the mean value. The date of grouping was recorded as Day 0, and drug administration was started based on the body weight of the animals. During drug administration, body weight of certain animals decreased by more than 15% compared to Day 0 (BWL≥15%), drug administration was discontinued for these animals until their body weight recovered (BWL<15%). The body weight and tumor volume of the animals were measured twice a week during the experiment, and clinical signs were observed and recorded daily.
# The efficacy in terms of tumor volume was evaluated by the relative tumor proliferation rate T/C ratio, and T/C (%) was calculated as TRTV/CRTV[…], where TRTV is the relative tumor volume (RTV) of the treatment group and CRTV is the RTV of the negative control group. The RTV was calculated as Vt/V0, where V0 is the tumor volume at the time of grouping and Vt is the tumor volume at each measurement. The drug is considered effective with T/CP≤40% according to NMPA guidelines.
# The efficacy in terms of tumor weight was evaluated by TGI (tumor weight inhibition) values, TGI 0%=(TWC−TWT)/TWC×[…], where TWC is tumor weight of control group, and TWT is tumor weight of treatment group. The drug is considered effective with TGI≥58% according to NIH guidelines.
# CK1ε, sequence (P49674 whole entry): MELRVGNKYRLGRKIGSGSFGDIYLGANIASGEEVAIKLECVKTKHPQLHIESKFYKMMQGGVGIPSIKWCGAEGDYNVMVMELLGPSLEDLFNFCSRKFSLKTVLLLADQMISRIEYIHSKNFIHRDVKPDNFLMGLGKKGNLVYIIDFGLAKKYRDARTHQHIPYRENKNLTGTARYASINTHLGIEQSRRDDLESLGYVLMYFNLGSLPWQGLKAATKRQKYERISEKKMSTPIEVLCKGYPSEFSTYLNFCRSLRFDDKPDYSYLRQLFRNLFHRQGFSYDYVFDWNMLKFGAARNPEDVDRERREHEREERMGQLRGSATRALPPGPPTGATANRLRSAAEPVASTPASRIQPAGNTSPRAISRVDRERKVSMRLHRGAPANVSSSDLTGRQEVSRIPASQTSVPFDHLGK
SMILES,IC50 (CK1ε) [nM],further results
"CC(c1nc2ccccc2c(=O)n1-c1ccccc1)n1nc(-c2ccc(OC3CC3)c(F)c2)c2c(N)ncnc21 (centres unmarked) [Compound B, reference compound]",2710,–
"COc1ccc(-c2nn(C(C)c3nc4cccc(Cl)c4c(=O)n3-c3ccccc3)c3ncnc(N)c23)cc1F (centres unmarked) [Compound C, reference compound]",701,IC50 (OCI-LY10 cells): 2700 nM
"CC(C)Oc1ccc(-c2nn(C(C)c3nc4cccc(F)c4c(=O)n3-c3ccccc3)c3ncnc(N)c23)cc1F (centres unmarked) [Compound D, reference compound]",1290,IC50 (OCI-LY10 cells): 746 nM
"COc1ccc(-c2nn(C(C)c3nc4ccccc4c(=O)n3-c3ccccc3)c3ncnc(N)c23)c(F)c1F (centres unmarked) [II-A-1, 2-(1-(4-amino-3-(2,3-difluoro-4-methoxyphenyl)-1H-pyrazolo[3,4-d]pyrimidin-1-yl)ethyl)-3-phenylquinazolin-4(3H)-one]",164,IC50 (OCI-LY10 cells): 142 nM; RTV Day 39 (OCI-LY10 xenograft tumor): 2.45 ± 0.50; T/C (%) Day 39 (OCI-LY10 xenograft tumor): 35.40%; TGI (%) (OCI-LY10 xenograft tumor): 63.91%; Tumor weight (OCI-LY10 xenograft tumor): 0.288 ± 0.064 g
"CC(C)Oc1ccc(-c2nn([C@@H](C)c3nc4ccccc4c(=O)n3-c3ccccc3)c3ncnc(N)c23)c(F)c1F [II-A-2a, (S)-2-(1-(4-amino-3-(2,3-difluoro-4-isopropoxyphenyl)-1H-pyrazolo[3,4-d]pyrimidin-1-yl)ethyl)-3-phenylquinazolin-4(3H)-one]",88,–
"CCOc1ccc(-c2nn(C(C)c3nc4ccccc4c(=O)n3-c3ccccc3)c3ncnc(N)c23)c(F)c1F (centres unmarked) [II-A-3, 2-(1-(4-amino-3-(4-ethoxy-2,3-difluorophenyl)-1H-pyrazolo[3,4-d]pyrimidin-1-yl)ethyl)-3-phenylquinazolin-4(3H)-one]",232,–
"COc1ccc(-c2nn(C(C)c3nc4cccc(F)c4c(=O)n3-c3ccccc3)c3ncnc(N)c23)c(F)c1F (centres unmarked) [II-A-8, 2-(1-(4-amino-3-(2,3-difluoro-4-methoxyphenyl)-1H-pyrazolo[3,4-d]pyrimidin−1-yl)ethyl)-5-fluoro-3-phenylquinazolin-4(3H)-one]",118,–
"COc1ccc(-c2nn([C@@H](C)c3nc4cccc(F)c4c(=O)n3-c3ccccc3)c3ncnc(N)c23)c(F)c1F [II-A-8a, (S)-2-(1-(4-amino-3-(2,3-difluoro-4-methoxyphenyl)-1H-pyrazolo[3,4-d]pyrimidin-1-yl)ethyl)-5-fluoro-3-phenylquinazolin-4(3H)-one]",60,–
"CC(C)Oc1ccc(-c2nn(C(C)c3nc4cccc(F)c4c(=O)n3-c3ccccc3)c3ncnc(N)c23)c(F)c1F (centres unmarked) [II-A-16, 2-(1-(4-amino-3-(2,3-difluoro-4-isopropoxyphenyl)-1H-pyrazolo[3,4-d]pyrimidin-1-yl)ethyl)-5-fluoro-3-phenylquinazolin-4(3H)-one]",100,fold increase of inhibitory activity against CK1ε (CK1ε; compared to CUX-031773): 93.6 fold; fold increase of inhibitory activity against CK1ε (CK1ε; compared to compound D): 12.9 fold
"COc1ccc(-c2nn(C(C)c3nc4cccc(Cl)c4c(=O)n3-c3cccnc3)c3ncnc(N)c23)c(F)c1F (centres unmarked) [II-B-2, 2-(1-(4-amino-3-(2,3-difluoro-4-methoxyphenyl)-1H-pyrazolo[3,4-d]pyrimidin-1-yl)ethyl)-5-chloro-3-(pyridin-3-yl)quinazolin-4(3H)-one]",372,IC50 (OCI-LY10 cells): 193 nM
"COc1ccc(-c2nn([C@@H](C)c3nc4cccc(Cl)c4c(=O)n3-c3cccnc3)c3ncnc(N)c23)c(F)c1F [II-B-2a, (S)-2-(1-(4-amino-3-(2,3-difluoro-4-methoxyphenyl)-1H-pyrazolo[3,4-d]pyrimidin-1-yl)ethyl)-5-chloro-3-(pyridin-3-yl)quinazolin-4(3H)-one]",202,–

# More lines, in order of falling IC50 (CK1ε), values ahead:
IC50 (CK1ε) [nM],SMILES,further results
1730,"CC(C)Oc1ccc(-c2nn(C(C)c3nc4ccccc4c(=O)n3-c3ccccc3)c3ncnc(N)c23)cc1F (centres unmarked) [Compound A, reference compound]",–
484,"COc1ccc(-c2nn([C@H](C)c3nc4ccccc4c(=O)n3-c3ccccc3)c3ncnc(N)c23)c(F)c1F [II-A-1b, (R)-2-(1-(4-amino-3-(2,3-difluoro-4-methoxyphenyl)-1H-pyrazolo[3,4-d]pyrimidin-1-yl)ethyl)-3-phenylquinazolin-4(3H)-one]",–
450,"CC(C)Oc1ccc(-c2nn([C@H](C)c3nc4ccccc4c(=O)n3-c3ccccc3)c3ncnc(N)c23)c(F)c1F [II-A-2b, (R)-2-(1-(4-amino-3-(2,3-difluoro-4-isopropoxyphenyl)-1H-pyrazolo[3,4-d]pyrimidin-1-yl)ethyl)-3-phenylquinazolin-4(3H)-one]",–
386,"COc1ccc(-c2nn(C(C)c3nc4ccccc4c(=O)n3-c3ccccc3)c3ncnc(N)c23)c(F)c1Cl (centres unmarked) [II-A-5, 2-(1-(4-amino-3-(3-chloro-2-fluoro-4-methoxyphenyl)-1H-pyrazolo[3,4-d]pyrimidin-1-yl)ethyl)-3-phenylquinazolin-4(3H)-one]",–
299,"COc1ccc(-c2nn(C(C)c3nc4cccc(Cl)c4c(=O)n3N3CCCCC3)c3ncnc(N)c23)c(F)c1F (centres unmarked) [II-C-5, 2-(1-(4-amino-3-(2,3-difluoro-4-methoxyphenyl)-1H-pyrazolo[3,4-d]pyrimidin-1-yl)ethyl)-5-chloro-3-(piperidin-1-yl)quinazolin-4(3H)-one]",IC50 (OCI-LY10 cells): 307 nM
234,"CC(c1nc2ccccc2c(=O)n1-c1ccccc1)n1nc(-c2ccc(OC3CC3)c(F)c2F)c2c(N)ncnc21 (centres unmarked) [II-A-4, 2-(1-(4-amino-3-(4-cyclopropoxy-2,3-difluorophenyl)-1H-pyrazolo[3,4-d]pyrimidin-1-yl)ethyl)-3-phenylquinazolin-4(3H)-one]",fold increase of inhibitory activity against CK1ε (CK1ε; compared to compound B): 12 fold
202,"COc1cc(F)c(-c2nn(C(C)c3nc4ccccc4c(=O)n3-c3ccccc3)c3ncnc(N)c23)c(F)c1 (centres unmarked) [II-A-12, 2-(1-(4-amino-3-(2,6-difluoro-4-methoxyphenyl)-1H-pyrazolo[3,4-d]pyrimidin-1-yl)ethyl)-3-phenylquinazolin-4(3H)-one]",–
145,"CC(C)Oc1ccc(-c2nn(C(C)c3nc4ccccc4c(=O)n3-c3ccccc3)c3ncnc(N)c23)c(F)c1F (centres unmarked) [II-A-2, 2-(1-(4-amino-3-(2,3-difluoro-4-isopropoxyphenyl)-1H-pyrazolo[3,4-d]pyrimidin-1-yl)ethyl)-3-phenylquinazolin-4(3H)-one]",fold increase of inhibitory activity against CK1ε (CK1ε; compared to compound A): 12 fold; IC50 (OCI-LY10 cells): 234 nM
100,"COc1ccc(-c2nn(C(C)c3nc4ccc(F)cc4c(=O)n3-c3ccccc3)c3ncnc(N)c23)c(F)c1F (centres unmarked) [II-A-9, 2-(1-(4-amino-3-(2,3-difluoro-4-methoxyphenyl)-1H-pyrazolo[3,4-d]pyrimidin-1-yl)ethyl)-6-fluoro-3-phenylquinazolin-4(3H)-one]",–
89,"COc1ccc(-c2nn(C(C)c3nc4cccc(Cl)c4c(=O)n3-c3cncc(F)c3)c3ncnc(N)c23)c(F)c1F (centres unmarked) [II-B-3, 2-(1-(4-amino-3-(2,3-difluoro-4-methoxyphenyl)-1H-pyrazolo[3,4-d]pyrimidin-1-yl)ethyl)-5-chloro-3-(5-fluoropyridin-3-yl)quinazolin-4(3H)-one]",–
